Experimental data from patent publication US12122763B2, “Substituted piperidines for androgen receptor degradation” (UBIX THERAPEUTICS, INC., priority 2020, dated 2024).

Biological target: T1, Androgen Receptor (AR) protein (Homo sapiens, UniProt P10275, T878A)
T1 construct: endogenous in cells; host or cells: LNCaP
Experiment: Androgen Receptor (AR) protein degradation assay in LNCaP cells, western blotting
Type: cell-based
Conditions: 20 h; for inhibition at 0.01 µM: 0.01 μM compound; for inhibition at 0.1 µM: 0.1 μM compound; for inhibition at 1 µM: 1 μM compound; for inhibition at 10 µM: 10 μM compound
Protocol: Experimental Example 1: Androgen Receptor (AR) Protein Degradation Assay
After treating LNCaP cells with the synthesized Example compound, the amount of AR protein present in the cells was measured. The amount of AR protein was measured using western blotting detection method. The protocol of the experiment using LNCaP cells was as follows:
[Culture] LNCaP cells were resuspended in RPMI1640 MEDIUM (Hyclone, SH30027.01), 10% FBS (Hyclone, SV30207.02), and 1% Penicillin-streptomycin (Welgene, LS 202-02) media to be 3×10^5/mL. Then, 1 mL each was seeded in a 12-well plate. After that, they were cultured for 3 days.
[Compound treatment] 10 μl of 0.1, 1, 10, and 100 μM compound, which is the final compound treatment concentration and a 100× stock of 0.001, 0.01, 0.1, and 1 μM, was added in 1 ml media of each well, and 20 hours later, the cells were harvested.
[Cell Lysis] Cell pellets were suspended using 1% SDS lysis buffer (50 mM Tris, 1 mM EDTA, 1% SDS, pH 8.0, 0.5 mM PMSF, 1× Protease/Phosphatase inhibitor Cocktail (Cell Signaling Technology, 5872s)), and sonication (70% AMP, 5 cycles (30 sec ON/59 sec OFF)) was performed. Cell lysate was obtained after centrifugation at 4° C., 15000 g, for 20 minutes.
[Protein quantification] A BCA protein assay (SMART™ BCA Protein Assay Kit, iNtRON Biotechnology, 21071) was performed using a 96-well microplate. After adding 5 μl cell lysate and 5 μl 1% SDS lysis buffer to each well of the 96-well plate, 200 μl of BCA reagent (Reagent A:Reagent B=50:1) was additionally added. After incubation at 37° C. for 30 minutes, it was cooled at room temperature for 10 minutes. Then, absorbance was measured at a wavelength of 562 nm. The unknown protein concentration was measured using a BSA standard curve (0, 0.125, 0.25, 0.5, 1, 2 mg/ml). Western blotting samples were prepared by mixing cell lysate, 1% SDS lysis buffer, 4× Bolt™ LDS Sample buffer (Invitrogen, B0008), and 10× Bolt™ Sample Reducing Agent (Invitrogen, B0009) and boiling the mixture at 70° C. for 10 minutes.
[Electrophoresis] After loading 8 μg of protein sample into each well of Bolt™ 4 to 12%, Bis-Tris, 1.0 mm Mini Protein Gel, 17-well (Invitrogen, NW04127BOX), Bolt™ MES SDS Running Buffer (Invitrogen, B0002) was used for electrophoresis at 200V (constant V) for 50 minutes.
[Transfer] Using electrophoresis gel and Trans-Blot® Turbo™ Transfer Starter System (Bio-RAD, #17001918, Mini Nitrocellulose), transfer proceeded for 15 minutes under the condition of 1.3A (Constant A) and 25V (Limit V). To confirm protein transfer, 15 ml of Ponceau S solution (Sigma, P7170-1L) was used for staining for 1 minute, followed by washing to confirm the degree of transfer.
[Blocking] Membranes for AR detection were blocked for 45 minutes with 5% skim milk/0.2% TBST (Skim milk: BD, 232100/20× TBS: Biosesang, TR2008-100-00/10% Tween 20 Solution: Bio-RAD, #161-0781). Membranes for GAPDH and β-actin detection were blocked for 45 minutes with Odyssey blocking buffer: 0.1% TBST=1:1 (Odyssey blocking buffer: Li-COR Biosciences, 927-50000).
[Antibody and detection] The primary AR antibody (Androgen Receptor: CST, 5153s) was mixed with 5% skim milk/0.2% TBST at a ratio of 1:1000 and attached for 3 hours at room temperature. Primary β-actin antibody (GeneTex, 629630) was mixed with 5% BSA/0.2% TBST at a ratio of 1:2000 and attached for 3 hours at room temperature. Primary GAPDH antibody (GeneTex, 100118) was mixed with 5% BSA/0.2% TBST at a ratio of 1:2000 and attached for 3 hours at room temperature. After 3 hours, it was washed 3 times every 5 minutes using TBST (0.2% Tween 20). Anti-rabbit IgG, HRP-linked Antibody (CST, 7074s), secondary antibody for the AR antibody was mixed with 5% skim milk/0.2% TBST at a ratio of 1:5000 and attached for 45 minutes at room temperature. […]

T1 sequence (P10275 whole entry T878A): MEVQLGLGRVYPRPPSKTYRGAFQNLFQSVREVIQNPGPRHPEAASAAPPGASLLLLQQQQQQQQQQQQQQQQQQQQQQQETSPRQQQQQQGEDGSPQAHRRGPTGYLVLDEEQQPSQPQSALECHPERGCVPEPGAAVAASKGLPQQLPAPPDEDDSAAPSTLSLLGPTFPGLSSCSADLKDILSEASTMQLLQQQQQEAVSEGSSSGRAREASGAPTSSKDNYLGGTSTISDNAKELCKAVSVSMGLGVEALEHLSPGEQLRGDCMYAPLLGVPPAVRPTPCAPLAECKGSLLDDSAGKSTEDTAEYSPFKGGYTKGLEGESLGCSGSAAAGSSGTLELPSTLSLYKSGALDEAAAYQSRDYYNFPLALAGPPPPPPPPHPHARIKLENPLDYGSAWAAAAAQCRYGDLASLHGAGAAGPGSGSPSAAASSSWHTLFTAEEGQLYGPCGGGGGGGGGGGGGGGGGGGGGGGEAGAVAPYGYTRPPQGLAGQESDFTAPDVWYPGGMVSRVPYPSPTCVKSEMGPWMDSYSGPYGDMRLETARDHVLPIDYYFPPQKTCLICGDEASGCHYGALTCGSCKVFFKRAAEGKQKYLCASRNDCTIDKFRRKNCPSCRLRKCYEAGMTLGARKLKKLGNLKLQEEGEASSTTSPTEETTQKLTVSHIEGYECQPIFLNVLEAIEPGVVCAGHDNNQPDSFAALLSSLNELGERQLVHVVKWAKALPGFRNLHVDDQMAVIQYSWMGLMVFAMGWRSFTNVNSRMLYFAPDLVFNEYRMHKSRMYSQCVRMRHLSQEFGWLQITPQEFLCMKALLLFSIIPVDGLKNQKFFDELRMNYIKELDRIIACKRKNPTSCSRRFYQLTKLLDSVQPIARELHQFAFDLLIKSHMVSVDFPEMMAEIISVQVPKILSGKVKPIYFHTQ
T1 sequence (Q96SW2 whole entry partner): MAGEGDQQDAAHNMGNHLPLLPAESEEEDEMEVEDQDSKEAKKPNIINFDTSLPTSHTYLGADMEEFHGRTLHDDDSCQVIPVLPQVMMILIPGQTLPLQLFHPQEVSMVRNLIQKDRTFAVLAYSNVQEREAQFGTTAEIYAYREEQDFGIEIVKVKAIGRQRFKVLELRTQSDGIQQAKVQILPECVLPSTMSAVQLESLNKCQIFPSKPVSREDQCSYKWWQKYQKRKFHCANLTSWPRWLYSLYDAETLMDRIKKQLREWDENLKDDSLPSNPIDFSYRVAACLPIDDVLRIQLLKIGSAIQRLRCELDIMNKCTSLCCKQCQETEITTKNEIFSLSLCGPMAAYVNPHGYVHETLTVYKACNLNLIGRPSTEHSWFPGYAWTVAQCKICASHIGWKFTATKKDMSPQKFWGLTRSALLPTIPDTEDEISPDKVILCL

N#Cc1ccc(N2CCC(C(=O)Nc3ccc(N4CCC(CN5CCN(c6ccc7c(c6)C(=O)N(C6CCC(=O)NC6=O)C7=O)CC5)CC4)cn3)CC2)cc1C(F)(F)F (stereo not drawn) [Example 1, 1-(4-cyano-3-(trifluoromethyl)phenyl)-N-(5-(4-((4-(2-(2,6-dioxopiperidin-3-yl)-1,3-dioxoisoindolin-5-yl)piperazin-1-yl)methyl)piperidin-1-yl)pyridin-2-yl)piperidine-4-carboxamide]
inhibition at 0.01 µM: 55%
inhibition at 0.1 µM: 98%
inhibition at 1 µM: 99%
inhibition at 10 µM: 99%

N#Cc1ccc(N2CCC(C(=O)Nc3ccc(N4CCC(CN5CCN(c6ccc7c(c6)C(=O)N(C6CCC(=O)NC6=O)C7=O)CC5)CC4)cn3)CC2)cc1Cl (stereo not drawn) [Example 2, 1-(3-chloro-4-cyanophenyl)-N-(5-(4-((4-(2-(2,6-dioxopiperidin-3-yl)-1,3-dioxoisoindolin-5-yl)piperazin-1-yl)methyl)piperidin-1-yl)pyridin-2-yl)piperidine-4-carboxamide]
inhibition at 0.01 µM: -9%
inhibition at 0.1 µM: 68%
inhibition at 1 µM: 97%
inhibition at 10 µM: 96%

N#Cc1ccc(N2CCC(C(=O)Nc3ccc(N4CCC(CN5CCN(CCOc6ccc7c(c6)C(=O)N(C6CCC(=O)NC6=O)C7=O)CC5)CC4)cn3)CC2)cc1C(F)(F)F (stereo not drawn) [Example 3, 1-(4-cyano-3-(trifluoromethyl)phenyl)-N-(5-(4-((4-(2-((2-(2,6-dioxopiperidin-3-yl)-1,3-dioxoisoindolin-5-yl)oxy)ethyl)piperazin-1-yl)methyl)piperidin-1-yl)pyridin-2-yl)piperidine-4-carboxamide]
inhibition at 0.01 µM: 45%
inhibition at 0.1 µM: 98%
inhibition at 1 µM: 96%

N#Cc1ccc(N2CCC(C(=O)Nc3ccc(N4CCC(CN5CCN(Cc6ccc7c(c6)C(=O)N(C6CCC(=O)NC6=O)C7=O)CC5)CC4)cn3)CC2)cc1C(F)(F)F (stereo not drawn) [Example 4, 1-(4-cyano-3-(trifluoromethyl)phenyl)-N-(5-(4-((4-((2-(2,6-dioxopiperidin-3-yl)-1,3-dioxoisoindolin-5-yl)methyl)piperazin-1-yl)methyl)piperidin-1-yl)pyridin-2-yl)piperidine-4-carboxamide]
inhibition at 0.01 µM: 24%
inhibition at 0.1 µM: 86%
inhibition at 1 µM: 96%

N#Cc1ccc(N2CCC(C(=O)Nc3ccc(N4CCC(CN5CCN(C(=O)CNc6ccc7c(c6)C(=O)N(C6CCC(=O)NC6=O)C7=O)CC5)CC4)cn3)CC2)cc1C(F)(F)F (stereo not drawn) [Example 5, 1-(4-cyano-3-(trifluoromethyl)phenyl)-N-(5-(4-((4-((2-(2,6-dioxopiperidin-3-yl)-1,3-dioxoisoindolin-5-yl)glycyl)piperazin-1-yl)methyl)piperidin-1-yl)pyridin-2-yl)piperidine-4-carboxamide]
inhibition at 0.01 µM: 82%
inhibition at 0.1 µM: 97%
inhibition at 1 µM: 97%
inhibition at 10 µM: 97%

N#Cc1ccc(N2CCC(C(=O)Nc3ccc(N4CCC(CN5CCN(CC6CCN(c7ccc8c(c7)C(=O)N(C7CCC(=O)NC7=O)C8=O)CC6)CC5)CC4)cn3)CC2)cc1Cl (stereo not drawn) [Example 7, 1-(3-chloro-4-cyanophenyl)-N-(5-(4-((4-((1-(2-(2,6-dioxopiperidin-3-yl)-1,3-dioxoisoindolin-5-yl)piperidin-4-yl)methyl)piperazin-1-yl)methyl)piperidin-1-yl)pyridin-2-yl)piperidine-4-carboxamide]
inhibition at 0.01 µM: 87%
inhibition at 0.1 µM: 99%
inhibition at 1 µM: 99%
inhibition at 10 µM: 94%

N#Cc1ccc(N2CCC(F)(C(=O)Nc3ccc(N4CCC(CN5CCN(CC6CCN(c7ccc8c(c7)C(=O)N(C7CCC(=O)NC7=O)C8=O)CC6)CC5)CC4)cn3)CC2)cc1C(F)(F)F (stereo not drawn) [Example 8, 1-(4-cyano-3-(trifluoromethyl)phenyl)-N-(5-(4-((4-((1-(2-(2,6-dioxopiperidin-3-yl)-1,3-dioxoisoindolin-5-yl)piperidin-4-yl)methyl)piperazin-1-yl)methyl)piperidin-1-yl)pyridin-2-yl)-4-fluoropiperidine-4-carboxamide]
inhibition at 0.01 µM: 37%
inhibition at 0.1 µM: 87%
inhibition at 1 µM: 95%

N#Cc1ncc(N2CCC(C(=O)Nc3ccc(N4CCC(CN5CCN(CC6CCN(c7ccc8c(c7)C(=O)N(C7CCC(=O)NC7=O)C8=O)CC6)CC5)CC4)cn3)CC2)cc1C(F)(F)F (stereo not drawn) [Example 9, 1-(6-cyano-5-(trifluoromethyl)pyridin-3-yl)-N-(5-(4-((4-((1-(2-(2,6-dioxopiperidin-3-yl)-1,3-dioxoisoindolin-5-yl)piperidin-4-yl)methyl)piperazin-1-yl)methyl)piperidin-1-yl)pyridin-2-yl)piperidine-4-carboxamide]
inhibition at 0.01 µM: 62%
inhibition at 0.1 µM: 95%
inhibition at 1 µM: 95%

N#Cc1ncc(N2CCC(F)(C(=O)Nc3ccc(N4CCC(CN5CCN(CC6CCN(c7ccc8c(c7)C(=O)N(C7CCC(=O)NC7=O)C8=O)CC6)CC5)CC4)cn3)CC2)cc1C(F)(F)F (stereo not drawn) [Example 10, 1-(6-cyano-5-(trifluoromethyl)pyridin-3-yl)-N-(5-(4-((4-((1-(2-(2,6-dioxopiperidin-3-yl)-1,3-dioxoisoindolin-5-yl)piperidin-4-yl)methyl)piperazin-1-yl)methyl)piperidin-1-yl)pyridin-2-yl)-4-fluoropiperidine-4-carboxamide]
inhibition at 0.01 µM: 9%
inhibition at 0.1 µM: 52%
inhibition at 1 µM: 74%

N#Cc1ccc(N2CCC(C(=O)Nc3ccc(N4CCC(CN5CCN(CC6CN(c7ccc8c(c7)C(=O)N(C7CCC(=O)NC7=O)C8=O)C6)CC5)CC4)cn3)CC2)cc1C(F)(F)F (stereo not drawn) [Example 11, 1-(4-cyano-3-(trifluoromethyl)phenyl)-N-(5-(4-((4-((1-(2-(2,6-dioxopiperidin-3-yl)-1,3-dioxoisoindolin-5-yl)azetidin-3-yl)methyl)piperazin-1-yl)methyl)piperidin-1-yl)pyridin-2-yl)piperidine-4-carboxamide]
inhibition at 0.01 µM: 76%
inhibition at 0.1 µM: 97%
inhibition at 1 µM: 97%
inhibition at 10 µM: 93%

N#Cc1ccc(N2CCC(C(=O)Nc3ccc(N4CCC(CN5CCN(CC6CN(c7ccc8c(c7)C(=O)N(C7CCC(=O)NC7=O)C8=O)C6)CC5)CC4)cn3)CC2)cc1Cl (stereo not drawn) [Example 12, 1-(3-chloro-4-cyanophenyl)-N-(5-(4-((4-((1-(2-(2,6-dioxopiperidin-3-yl)-1,3-dioxoisoindolin-5-yl)azetidin-3-yl)methyl)piperazin-1-yl)methyl)piperidin-1-yl)pyridin-2-yl)piperidine-4-carboxamide]
inhibition at 0.01 µM: 52%
inhibition at 0.1 µM: 95%
inhibition at 1 µM: 97%
inhibition at 10 µM: 94%

N#Cc1ccc(N2CCC(C(=O)Nc3ccc(N4CCC(CN5CCN(CC6CCN(c7cccc8c7C(=O)N(C7CCC(=O)NC7=O)C8=O)CC6)CC5)CC4)cn3)CC2)cc1C(F)(F)F (stereo not drawn) [Example 13, 1-(4-cyano-3-(trifluoromethyl)phenyl)-N-(5-(4-((4-((1-(2-(2,6-dioxopiperidin-3-yl)-1,3-dioxoisoindolin-4-yl)piperidin-4-yl)methyl)piperazin-1-yl)methyl)piperidin-1-yl)pyridin-2-yl)piperidine-4-carboxamide]
inhibition at 0.01 µM: 59%
inhibition at 0.1 µM: 91%
inhibition at 1 µM: 94%
